Data as given in EPA's ToxValDB 9.5 (doi:10.2903/j.efsa.2010.1707).
≈ marks a conversion by molar mass, not a printed value.

Key:
Apis mellifera = settings: acute; duration: 48 hours; oral; unspecified; mortality
Bibionidae = settings: chronic/long-term; duration: 28 days
Canidae = settings: chronic; duration: 1 years; oral; Dog Other; clinical chemistry
Cyprinodon variegatus = settings: acute; duration: 96 hours; mortality
Daphnia magna = settings: chronic/long-term; duration: 21 days; growth
Folsomia candida = settings: chronic/long-term; duration: 28 days
Oncorhynchus mykiss = settings: acute; duration: 96 hours; mortality
Oryctolagus sp. = settings: developmental; development
Pimephales promelas = settings: chronic/long-term; duration: 34 days; other
Rattus norvegicus = settings: oral
Aphidius rhopalosiphi = assay: LR50; higher = less toxic; settings: not reported; mortality
Typhlodromus pyri = assay: LR50; higher = less toxic; settings: not reported; mortality

## CCCN(CCC)c1c([N+](=O)[O-])cc(S(N)(=O)=O)cc1[N+](=O)[O-] [Oryzalin]
Anas platyrhynchos; reproductive
  NOEL: 41 mg/kg-day
Anas platyrhynchos; short-term, oral, feed, mortality
  LD50: > 1350 mg/kg-day
Apis mellifera
  LD50: 32 µg/piece
Bibionidae
  NOEC: 1 mg/L
Canidae
  NOAEL: 5 mg/kg-day
Colinus virginianus; acute, oral, diet, mortality
  LD50: > 691 mg/kg-day
Colinus virginianus; reproduction developmental
  NOEL: 28 mg/kg-day
Cyprinodon variegatus
  LC50: > 3.04 µg/mL
Daphnia magna
  NOEC: 0.36 mg/L
Folsomia candida
  NOEC: 34.3 mg/kg
Oncorhynchus mykiss
  LC50: 2.86 µg/mL (≈ 8.26 µM)
Oryctolagus sp.
  NOAEL: 25 mg/kg-day
Pimephales promelas
  NOEC: 0.22 mg/L
Rattus norvegicus; acute, mortality
  LD50: > 5000 mg/kg-day
Rattus norvegicus; subchronic, duration: 90 days, hematological
  NOAEL: 5 mg/kg-day
Tagia sp.; acute, duration: 14 days, mortality
  LC50: > 103 mg/kg
Tagia sp.; chronic/long-term, duration: 56 days
  NOEC: 34.3 mg/kg
Aphidius rhopalosiphi
  LR50: > 3850 g/ha
Typhlodromus pyri
  LR50: < 3850 g/ha
